US20100240605A1, “NOVEL IMMUNOTHERAPY STRATEGY” (priority 2007, published 2010)
“Also recorded” adds a separate entry of the source. Read-outs that look alike come from different tables or passages of the source.

How the values were obtained:
[1] = system: various human and mouse cell lines; assay: Toxicity of the test solution on cell lines; assay type: cell-based; conditions: test solution (2 mg COAM in 100 μl 0.9% NaCl)
[2] = molecular target: T1, mouse granulocyte chemotactic protein-2 (mGCP-2) (Mus musculus, UniProt P50228); assay: Chemokine binding in solution, gel filtration chromatography with ELISA of fractions
T1 sequence (P50228 41-132): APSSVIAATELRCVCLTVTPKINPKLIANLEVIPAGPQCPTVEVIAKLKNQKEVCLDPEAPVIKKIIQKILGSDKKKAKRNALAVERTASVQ
Protocol: The COAM preparation was incubated with 50 nanogram mouse GCP-2 and the mixture was analysed by gel filtration chromatography (lower figure) and the presence of GCP-2 in the column fractions was analysed with a sensitive ELISA for mouse GCP-2.
(§1) COAM alone, mGCP-2 or COAM incubated in the presence of mGCP-2 were separated by classical gel filtration chromatography. The elution fractions were collected and the presence of mGCP-2 was determined in the elution fractions by ELISA specific for mGCP-2. […] Since COAM itself is a mixture of polymers with different lengths, we fractioned first COAM in three fractions and then repeated the mGCP-2 binding and chromatographic analysis (as described above) with the high molecular weight COAM (high MW COAM) and mGCP-2. […] This is illustrated in FIG. 2.

[3] = molecular target: T2, human interleukin-8/CXCL8 (IL-8/CXCL8) (Homo sapiens, UniProt P10145); assay: Chemokine binding in solution, gel filtration chromatography; conditions: 500 ng IL-8/CXCL8; free IL-8 eluted at low molecular masses
T2 sequence (P10145 21-99): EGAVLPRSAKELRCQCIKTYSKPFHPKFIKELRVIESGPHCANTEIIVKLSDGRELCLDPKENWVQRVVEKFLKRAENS
Protocol: as §1
In a second set of experiments human 500 ng interleukin-8/CXCL8 (IL-8/CXCL8) was tested.

[4] = molecular target: human monocyte chemotactic protein-1/CCL2 (MCP-1/CCL2) (Homo sapiens, UniProt P13500); assay: as above; conditions: 500 ng MCP-1/CCL2; free MCP-1 eluted at low molecular weight
Sequence of human monocyte chemotactic protein-1/CCL2 (MCP-1/CCL2) (P13500 24-99): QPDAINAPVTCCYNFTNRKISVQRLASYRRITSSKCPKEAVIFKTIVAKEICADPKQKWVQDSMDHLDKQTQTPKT
Protocol: as §1
In a third set, 500 ng human monocyte chemotactic protein-1/CCL2 (MCP-1/CCL2) was tested. Again, free MCP-1 eluted at low molecular weight, compatible with the relative size of MCP-1. […] This is again compatible with its binding to COAM

[5] = molecular target: T3, synthetic human IP-10/CXCL10 (Homo sapiens, UniProt P02778); assay: as above; conditions: no separate IP-10 result printed
T3 sequence (P02778 22-98): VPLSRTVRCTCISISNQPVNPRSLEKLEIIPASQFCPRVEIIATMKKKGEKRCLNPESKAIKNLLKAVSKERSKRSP
Source text: In a fourth example, we used synthetic human IP-10/CXCL10.

[6] = system: B16-F1 mouse melanoma tumors; assay: Syngeneic B16-F1 melanoma tumors in C57BI6 mice, intratumoral injection; assay type: in vivo; conditions: for effect on tumor expansion: single intratumoral dose of 100 μg at day 1 post tumor inoculation, COAM, heparin, saline compared
Protocol: We used B16-F1 mouse melanoma tumors in C57BI6 mice. 0.5 million tumor cells were injected intradermally on day 0 as known in the art. In one experiment, control mice were injected with saline on days 1, 8 and 15. The treated group COAM d1 was injected intratumorally with a single dose of 100 μg COAM on day1. The treated group COAM d1, d8, d15 was injected with 100 μg COAM three times intratumorally. […] In some cases the tumor ulcerated.
At day 18, all tumors were excised and their volumes and weights were measured.
In particular, in the FIGS. 5 A, B, C and D, we used heparin as an additional control. […] Heparin is a polyanion and binds chemokines and mimics heparin sulphate proteoglycans. The experiment was repeated as above with a single intratumoral dose of 100 μg COAM, 100 μg heparin and saline control at day 1 post tumor inoculation.

B16-F1 cells = assay: B16 melanoma formation in immunocompromised SCID mice; assay type: in vivo; conditions: 500 000 B16-F1 cells s.c. on day 0
Source text: We used a similar protocol as above in immunocompromised SCID mice. The SCID mice received s.c. 500 000 B16-F1 cells on day 0.

[7] = system: CD11b+Gr-1+ cells (neutrophils); assay: EAE model: neutrophil mobilization to the peritoneal cavity and infiltration of spinal cord and brain; assay type: in vivo, mice; conditions: for CD11b^+Gr-1^+ cells in the peritoneal cavity: 2 mg COAM i.p. on day 0 and 7
Protocol: FIG. 9: Mobilization of neutrophils into the peritoneal cavity in response to COAM. Mice were immunized with SCH in CFA and treated with COAM (2 mg) or saline on days 0 and 7. Peritoneal cells were collected on days 5, 9 and 14, or 16 post immunization. […] Data represent three individual experiments taken together; bars represent averages±standard error of the mean of seven or nine mice. (B) Flow cytometric analysis of peritoneal cells of control mice and COAM-treated mice. Cells were stained for the presence of CD11b using FITC-labeled antibodies, and of Gr-1 using PE-labeled antibodies. Numbers indicated on each graph represent percent CD11b^+Gr-1^+ cells. One representative analysis out of 9 is shown.
FIG. 10: Neutrophil infiltration in the spinal cord and brain of COAM-treated mice is reduced compared with saline-treated control mice. […] Data of 3 pooled experiments are shown. Histograms represent averages±SEM. (B) Flow cytometry of cells isolated from the spinal cord and brain on day 16 post immunization of mice treated with COAM (2 mg) or saline on days 0 and 7. Cells were stained for CD11b and Gr-1. Numbers indicated on each graph represent percent CD11b^+Gr-1^+ cells. Each plot represents a staining pattern of pooled cells from 3 mice. Results are representative of three independent experiments with similar results.
(§2) Experimental autoimmune encephalomyelitis was induced in mice (mice were immunized with SCH in CFA) and the groups were randomized. One group was treated with 2 mg COAM intraperitoneally on day 0 and day 7.
Mice were immunized with SCH in CFA on day 0 and treated i.p. with 2 mg COAM or saline on day 0 and 7. Cells were obtained from the peritoneal cavity of saline- and COAM-treated mice on day 5, 9 and 14, 15 or 16 after immunization. Cells were stained with anti-CD11b-FITC and anti-Gr-1-PE antibodies. The proportion of CD11b^+Gr-1^+ cells is shown. Results represent pooled data from 3 experiments and N indicates the total number of mice examined. *p<0.05 between COAM-treated and saline-treated mice (Mann-Whitney U-test).

[8] = system: experimental autoimmune encephalomyelitis; assay: EAE model: clinical course of active EAE; assay type: in vivo, SJL/J mice
Protocol: FIG. 11: The clinical course of active EAE is attenuated in COAM-treated mice. SJL/J mice were immunized subcutaneously with syngeneic spinal cord homogenate for induction of EAE. They were treated i.p. with 2 mg COAM (filled boxes) or saline (open boxes) on day 0 (A), day 8 (B) or days 0 and 7 (C) post immunization. The clinical course of EAE in these mice is shown as mean daily group score±sem. The disease parameters are given as an insert. Dead animals were scored 6 from the day of death until the end of the study. Arrows point to the days of COAM administration. *p<0.05; **p<0.01 for comparison with saline-treated group; Wilcoxon test or Chi-square test.
as §2
SJL/J mice were immunized subcutaneously with syngeneic spinal cord homogenate for induction of EAE. They were treated i.p. with 2 mg COAM (filled boxes) or saline (open boxes) on day 0 (A), day 8 (B) or days 0 and 7 (C) post immunization. The clinical course of EAE in these mice is shown as mean daily group score±sem. The disease parameters are given as an insert. Dead animals were scored 6 from the day of death until the end of the study. […]

peritoneal leukocytes = conditions: for neutrophils among peritoneal cells: 2 mg unfractionated COAM i.p.
Protocol: In a first set of in vivo experiments, 2 mg of COAM (unfractionated, solution of 2 mg in 100 μl sterile pyrogen-free 0.9% NaCl) was injected intraperitoneally per mouse and leukocytes were counted and defined at different times after injection of groups of 3-4 mice.

[9] = system: Moloney Sarcoma Virus-induced tumor; conditions: IP administration; De Clercq et al. 1972; cited from earlier work
[10] = EAE mice, 2 mg COAM i.p. on days 0 and 7

**Q.** What does the source list for chlorite-oxidized oxyamylose [COAM]?
**A.** toxic effect on cell lines [1]: not any toxic effect; elution position of mGCP-2 together with COAM (molecular weight range) ([2]; COAM incubated with mGCP-2, mGCP-2 alone eluted at about 10 kilodaltons): > 50 kilodaltons; binding of mGCP-2 ([2]; in solution, gel filtration, ELISA for mouse GCP-2): GCP-2 binds to COAM in solution; elution of interleukin-8 in the presence of COAM [3]: coeluted with COAM at high relative molecular weight; elution of MCP-1 in the presence of COAM [4]: eluted at the position of the high molecular weight of COAM; chemokine binding, conclusion from results with mGCP-2, IL-8, MCP-1, IP-10 [5]: general chemokine-binding factor; additional effect of three injections instead of one injection ([6]; 100 μg intratumorally d1, d8, d15 versus d1 only): No additional effect; overall mean tumor volume and weights as function of time ([6]; COAM-treated groups (100 μg intratumorally d1, or d1, d8, d15) versus saline): significantly reduced; tumor burden with exclusion of ulcerated open tumors ([6]; COAM-treated groups versus saline): significant effect on tumor burden; spleen weight (readout of systemic inflammation) ([6]; after intratumoral injection, compared with saline and heparin): no overt splenomegaly; tumor volume ([6]; single COAM-treated group (COAM d1 only) versus saline, several experiments combined, p<0.015): significantly reduced; tumor weight ([6]; single COAM-treated group (COAM d1 only) versus saline, several experiments combined, p<0.025): significantly reduced; tumor growth ([6]; single dose of 100 μg COAM intratumorally at Day 1 versus saline, 6 COAM-treated and 5 control mice): significant reduction of tumor growth; effect on tumor expansion [6]: lasting and significant effect; tumor volume ([6]; triple treated COAM versus control group, p<0.030): significantly reduced; tumor weight ([6]; triple treated COAM versus control group, p<0.05): significantly reduced; protection against tumors in an immunocompromised host (B16-F1 cells): protects an immunocompromised host against tumors; mast cell population in the peritoneal cavity [7, 10]: reduced; also recorded: decrease in mast cells; neutrophil recruitment to the peritoneal cavity [7, 10]: increased neutrophil recruitment; also recorded: specific infiltration of neutrophils; CD11b^+Gr-1^+ cells in the peritoneal cavity ([7]; day 5 p.i., N = 8): 322.78 ± 79.43 (N = 8) ×10^4; CD11b^+Gr-1^+ cells in the peritoneal cavity ([7]; day 9 p.i., N = 9, p<0.05 versus saline): 1210.85 ± 272.05 (N = 9) * ×10^4; CD11b^+Gr-1^+ cells in the peritoneal cavity ([7]; day 14-16 p.i., N = 5, p<0.05 versus saline): 276.66 ± 67.29 (N = 5) * ×10^4; neutrophil infiltration into spinal cord and brain ([7]; day 16 post immunization, 2 mg COAM i.p. on days 0 and 7, versus saline): reduced; also recorded: lower percentage of neutrophils; clinical course of active EAE (mean daily group score) ([8]; 2 mg COAM i.p. on day 0, day 8 or days 0 and 7 post immunization, versus saline): attenuated; protection against severe EAE ([8]; two injections of COAM): protect a mammalian host against severe EAE; survival and morbidity of the mice (peritoneal leukocytes; 2 mg unfractionated COAM i.p. per mouse): survived without apparent morbidity; peritoneal cells (peritoneal leukocytes; 2 mg unfractionated COAM i.p. per mouse, within 2 hours, control 126.000 cells): 630.000 cells; neutrophils among peritoneal cells (peritoneal leukocytes; at 4 h): 64.1%; neutrophils among peritoneal cells (peritoneal leukocytes; at 8 h): 70.3%; neutrophils among peritoneal cells (peritoneal leukocytes; within 2 hours, control 2.2%): 18.1%; regression of tumors [9]: not show a regression of tumors

**Q.** Which “effect on tumor expansion” value [6] does the source give for heparin [reference compound] here?
**A.** some effect in the early phase
